“And” between values parts separate entries of the source, which are not always exact repeats. Equal values may be shown once.
Molecular target: full length XPA protein (Homo sapiens, UniProt P23025)
Experiment: biochemical
Details: IC50 (μM), EMSA, 32P labeled 30 bp duplex DNA containing a single 1,2 dGpG cisplatin adduct, several values in a cell = separate determinations
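Further: XPA expressed in Sf9 cells, preincubated with compound on ice before adding DNA, complex resolved on native polyacrylamide gel at 4 °C, PhosphorImager band intensity, binding inhibition versus DMSO.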

Sequence of full length XPA protein (P23025 whole entry): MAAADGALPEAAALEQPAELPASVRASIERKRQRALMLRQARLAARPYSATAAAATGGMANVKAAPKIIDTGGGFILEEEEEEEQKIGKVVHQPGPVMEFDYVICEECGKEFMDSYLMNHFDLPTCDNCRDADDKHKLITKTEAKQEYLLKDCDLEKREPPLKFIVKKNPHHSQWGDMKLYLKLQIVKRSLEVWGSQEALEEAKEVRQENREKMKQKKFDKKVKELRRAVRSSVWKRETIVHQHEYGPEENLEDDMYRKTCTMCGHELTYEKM
Description: Purified XPA (lanes 2-18) was mixed with DMSO (Lane 2, C) control or the indicated compound at a concentration of 50 μM (Lanes 3-18). ^32P labeled ds-platinum damaged DNA was added and incubation continued for 30 minutes on ice. The products were separated on a 6% native gel by electrophoresis at 4° C. Products were detected and quantified by PhosphorImager analysis.
EMSA was carried out using previously described procedure with the following modification. Reactions were performed in volume of 20 μL, containing a ^32P labeled 30 bp duplex DNA containing a single 1,2 dGpG cisplatin adduct. Compounds were pre-incubated on ice with the indicated amount of XPA and products separated by electrophoresis on a non-denaturing 6% polyacrylamide gel. Gels were cooled, loaded and electrophoresis performed at 4° C. Gels were used to expose a Phosphorlmager screen and band intensity determined and % binding and inhibition calculated as we have previously described.

Row | SMILES | IC50
1 | CCOC(=O)c1cccc(N2N=C(C)C(=Cc3ccc(C(=O)O)o3)C2=O)c1 [NG-02-154, 5-((1-(3-(ethoxycarbonyl)phenyl)-3-methyl-5-oxo-1,5-dihydro-4H-pyrazol-4-ylidene)methyl)furan-2-carboxylic acid] | 45 µM
2 | O=C(O)c1cccc(N2N=C(C(F)(F)F)/C(=C/c3ccc(-c4ccc(Cl)c(C(=O)O)c4)o3)C2=O)c1 [NG-04-314, 5-(5-((1-(3-carboxyphenyl)-5-oxo-3-(trifluoromethyl)-1,5-dihydro-4H-pyrazol-4-ylidene)methyl)furan-2-yl)-2-chlorobenzoic acid] | 15 µM
3 | CC1=NN(c2ccc(C(=O)O)cc2)C(=O)C1Cc1ccc(-c2ccc(Cl)c(C(=O)NCc3ccc(F)cc3)c2)o1 (stereo not shown) [NG-02-151, 4-(4-((5-(4-Chloro-3-((4-fluorobenzyl)carbamoyl)phenyl)furan-2-yl)methyl)-3-methyl-5-oxo-4,5-dihydro-1H-pyrazol-1-yl)benzoic acid] | 15 µM and 35 µM
4 | CC1=NN(c2cccc(C(=O)O)c2)C(=O)/C1=C\c1ccc(-c2ccc(Cl)c(C(=O)NC3CC3)c2)o1 [Compound 34f, (Z)-3-(4-((5-(4-Chloro-3-(cyclopropylcarbamoyl)phenyl)furan-2-yl)methylene)-3-methyl-5-oxo-4,5-dihydro-1H-pyrazol-1-yl)benzoic acid] | 32 µM
